A word on the IC50: it is the midpoint of a concentration-inhibition curve.

One experiment concerns the target T1, recombinant human liver glycogen phosphorylase (Homo sapiens, UniProt P06737).
T1 construct: made in house; host or cells: Sf9 insect cells (crude homogenate, diluted, used as the enzyme solution)
T1 sequence (P06737 1-847): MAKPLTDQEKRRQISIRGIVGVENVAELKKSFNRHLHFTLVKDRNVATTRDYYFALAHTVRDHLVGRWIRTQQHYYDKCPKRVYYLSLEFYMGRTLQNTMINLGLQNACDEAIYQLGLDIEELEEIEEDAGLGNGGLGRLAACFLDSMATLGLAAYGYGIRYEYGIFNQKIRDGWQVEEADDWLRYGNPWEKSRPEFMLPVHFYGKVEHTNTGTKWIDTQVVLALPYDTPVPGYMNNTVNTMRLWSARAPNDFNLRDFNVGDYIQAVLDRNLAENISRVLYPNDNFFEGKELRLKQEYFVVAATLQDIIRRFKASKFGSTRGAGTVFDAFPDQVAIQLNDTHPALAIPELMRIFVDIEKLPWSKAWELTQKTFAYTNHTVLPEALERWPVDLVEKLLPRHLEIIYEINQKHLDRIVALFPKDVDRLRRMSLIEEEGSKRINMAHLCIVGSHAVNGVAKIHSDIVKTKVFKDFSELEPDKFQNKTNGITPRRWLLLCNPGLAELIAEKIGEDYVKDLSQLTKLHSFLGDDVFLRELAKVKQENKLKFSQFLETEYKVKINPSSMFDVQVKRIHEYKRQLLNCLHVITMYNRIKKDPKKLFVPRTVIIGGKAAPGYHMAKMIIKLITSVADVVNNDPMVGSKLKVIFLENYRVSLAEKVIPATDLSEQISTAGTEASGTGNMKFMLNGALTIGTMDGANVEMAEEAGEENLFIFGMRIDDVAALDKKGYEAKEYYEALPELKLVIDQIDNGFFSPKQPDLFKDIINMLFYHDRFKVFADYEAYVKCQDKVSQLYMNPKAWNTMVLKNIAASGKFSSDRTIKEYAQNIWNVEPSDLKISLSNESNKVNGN
The experiment can be described thus: Measuring liver glycogen phosphorylase activity (forward reaction system, NADPH absorbance at 340 nm). The class given is biochemical. The settings on record: compound concentration 100 nmol (in parentheses). In a few lines:
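Sf9 homogenate expressing the enzyme, in pH 6.8 BES/EDTA, with glycogen and phosphate substrate plus glucose, coupled via phosphoglucomutase/G6PDH to NADPH formation. A340 change over 75 min at room temperature, blank-corrected; IC50 linearly interpolated between the two concentrations bracketing 50% inhibition versus 1% DMSO control.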
Take `CCOC(=O)C(C)(C)c1cnc(NC(=O)c2cc(NC(=O)c3cc(F)c(F)cc3Cl)[nH]n2)c(OCC)c1` [Example 1-149]: the “inhibition rate (%) at a certain concentration” value is 20.8%(100).

The same experiment, now with this note: compound concentration 100 nmol (in parentheses); read-out: inhibition rate (%) at a certain concentration.
As to `O=C(NCc1ccccc1)c1cc(NC(=O)c2ccncc2Cl)[nH]n1` [Example 4-44], the inhibition at 0.1 µM amounted to 5.7%.
The same measure, in the same setting: with `O=C(N[C@H]1c2ccccc2C[C@H]1O)c1cc(NC(=O)c2cc(F)c(F)cc2Cl)[nH]n1` [Example 2-31] the figure was 5.5%.
For the molecule `CC(NC(=O)c1cc(NC(=O)c2cc(F)c(F)cc2Cl)[nH]n1)c1cccnc1` (stereo not shown) [Example 2-26], the inhibition at 0.1 µM was found to be 36.4%.

Staying with this experiment, now noted: compound concentration 300 nmol (in parentheses); read-out: inhibition rate (%) at a certain concentration.
As for `O=C(NCc1ccccc1)c1cc(NC(=O)c2ccc(F)cc2C(F)(F)F)[nH]n1` [Example 4-32], the inhibition at 0.3 µM was determined as 7.8%.
Still for that read-out and setting: with `Cc1ncccc1C(=O)Nc1cc(C(=O)NCc2ccccc2)n[nH]1` [Example 4-42] the figure was 8.5%; with `CCC(CC)N(CCOC)C(=O)c1cc(NC(=O)c2cc(F)c(F)cc2Cl)[nH]n1` [Example 1-103], 21.6%.
In the case of `COc1ccc(C(=O)Nc2cc(C(=O)NCc3ccccc3)n[nH]2)c(C)c1` [Example 4-14], the inhibition at 0.3 µM is 10.6%.
The same measure, in the same setting: the value for `Cc1ccc(F)c(C(=O)Nc2cc(C(=O)NCc3ccccc3)n[nH]2)c1` [Example 4-19] was 3.3%; that for `CCCCN(C(=O)c1cc(NC(=O)c2cc(F)c(F)cc2Cl)[nH]n1)C1CC[S+]([O-])CC1` (stereo not shown) [Example 1-115] was 39.7%.

Staying with this experiment, now noted: compound concentration 490 nmol (in parentheses); read-out: inhibition rate (%) at a certain concentration.
Consider `CN(Cc1ccccc1)C(=O)c1cc(NC(=O)c2cc(F)c(F)cc2Cl)[nH]n1` [Example 3-1, 5-(2-chloro-4,5-difluoro-benzoylamino)-1H-pyrazole-3-carboxylic acid benzyl-methyl-amide], for which the inhibition at 0.49 µM was 50%.

Still in this experiment, the particulars now being: compound concentration 590 nmol (in parentheses); read-out: inhibition rate (%) at a certain concentration.
As to `CC(C)(NC(=O)c1cc(NC(=O)c2cc(F)c(F)cc2Cl)[nH]n1)c1ccccc1` [Example 4-10], the inhibition at 0.59 µM is 50%.

The same experiment, now with this note: compound concentration 640 nmol (in parentheses); read-out: inhibition rate (%) at a certain concentration.
With `O=C(Nc1ccccc1)c1cc(NC(=O)c2cc(F)c(F)cc2Cl)[nH]n1` [Example 3-3], the inhibition at 0.64 µM was found to be 50%.

Still in this experiment, the particulars now being: compound concentration 1000 nmol (in parentheses); read-out: inhibition rate (%) at a certain concentration.
Consider `O=C(NC(c1ccccc1)c1ccccc1)c1cc(NC(=O)c2cc(F)c(F)cc2Cl)[nH]n1` [Example 3-19], for which the inhibition at 1 µM came to 9.2%.

Still in this experiment, the particulars now being: enzyme inhibitory activity with respect to liver glycogen phosphorylase; class symbols.
With `O=C(O)CCN(Cc1ccccc1)C(=O)c1cc(NC(=O)c2cc(F)c(F)cc2Cl)[nH]n1` [Example 1-131], the IC50 was less than 0.1 µM.
Take `O=C(NCc1c(F)cccc1Cl)c1cc(NC(=O)c2cc(F)c(F)cc2Cl)[nH]n1` [Example 1-36]: the IC50 was less than 0.1 µM.
As to `CN1CCN(c2ccc(CNC(=O)c3cc(NC(=O)c4cc(F)c(F)cc4Cl)[nH]n3)cn2)CC1` [Example 5-39], the IC50 was less than 0.1 µM.
Same read-out and setting: with `CCCCN(C(=O)c1cc(NC(=O)c2cc(F)c(F)cc2Cl)[nH]n1)C1CCN(S(C)(=O)=O)CC1` [Example 1-111] the figure was 0.1 to 0.3 µM; with `CCCCN(CCCC)C(=O)c1cc(NC(=O)c2cc(F)c(F)cc2Cl)[nH]n1` [Example 1-93], less than 0.1 µM.
Same read-out and setting: the value for `COc1cncc(OC)c1CNC(=O)c1cc(NC(=O)c2cc(F)c(F)cc2Cl)[nH]n1` [Example 3-51] was less than 0.1 µM.
Same read-out and setting: with `CCCCCN(C(=O)c1cc(NC(=O)c2cc(F)c(F)cc2Cl)[nH]n1)c1ccccc1` [Example 3-18] the figure was 0.1 to 0.3 µM.
Regarding `O=C(NCc1ccc(Oc2ccccc2)nc1)c1cc(NC(=O)c2cc(F)c(F)cc2Cl)[nH]n1` [Example 2-22], the IC50 is less than 0.1 µM.
On to `Cc1nc(CNC(=O)c2cc(NC(=O)c3cc(F)c(F)cc3Cl)[nH]n2)c(C)o1` [Example 1-162], for which the IC50 is less than 0.1 µM.
`O=C(NCCO)c1ccc(CNC(=O)c2cc(NC(=O)c3cc(F)c(F)cc3Cl)[nH]n2)cc1` [Example 1-48]: the IC50 was less than 0.1 µM.
The same measure, in the same setting: the value for `O=C(NCc1ccc(-c2ccccc2)nc1)c1cc(NC(=O)c2cc(F)c(F)cc2Cl)[nH]n1` [Example 2-32] was less than 0.1 µM.
In the case of `COc1ccc(CNC(=O)c2cc(NC(=O)c3ccc(Cl)cc3Cl)[nH]n2)cn1` [Example 3-50], the IC50 was less than 0.1 µM.
Still for that read-out and setting: the value for `CCCCN(C(=O)c1cc(NC(=O)c2cc(F)c(F)cc2Cl)[nH]n1)C1CCSCC1` [Example 1-105] was 0.1 to 0.3 µM; that for `O=C(Nc1cc(C(=O)N(CC(=O)N2CCCCC2)c2ccccc2)n[nH]1)c1cc(F)c(F)cc1Cl` [Example 4-11] was less than 0.1 µM.
On the same count and under the same terms, the value for `COC(=O)CCN(C(=O)c1cc(NC(=O)c2cc(F)c(F)cc2Cl)[nH]n1)c1ccccc1` [Example 4-25] was less than 0.1 µM.
Consider `O=C(NCc1cccc(F)c1)c1cc(NC(=O)c2cc(F)c(F)cc2Cl)[nH]n1` [Example 1-9], for which the IC50 was less than 0.1 µM.
Same read-out and setting: with `CCN(CCOC)C(=O)c1cc(NC(=O)c2cc(F)c(F)cc2Cl)[nH]n1` [Example 1-7] the figure was 0.1 to 0.3 µM; with `CCCCCCc1nc(C)oc1CNC(=O)c1cc(NC(=O)c2cc(F)c(F)cc2Cl)[nH]n1` [Example 1-167], less than 0.1 µM; with `CC(C)(C)c1ccc(CNC(=O)c2cc(NC(=O)c3cc(F)c(F)cc3Cl)[nH]n2)cc1` [Example 1-30], less than 0.1 µM.
Same read-out and setting: the value for `COc1ccc(CNC(=O)c2cc(NC(=O)c3cc(F)c(F)cc3Cl)[nH]n2)c(OC)c1` [Example 1-14] was less than 0.1 µM.
The same measure, in the same setting: the value for `Cc1ccc(F)cc1C(=O)Nc1cc(C(=O)NCc2ccccc2)n[nH]1` [Example 4-12] was 0.1 to 0.3 µM; that for `CC(C)(C)c1cnc(CNC(=O)c2cc(NC(=O)c3cc(F)c(F)cc3Cl)[nH]n2)s1` [Example 1-60] was less than 0.1 µM; that for `CN(C)CCNC(=O)c1ccc(CNC(=O)c2cc(NC(=O)c3cc(F)c(F)cc3Cl)[nH]n2)cc1` [Example 1-33] was less than 0.1 µM.
For the molecule `CCNC(=O)c1ccc(CNC(=O)c2cc(NC(=O)c3cc(F)c(F)cc3Cl)[nH]n2)cc1` [Example 1-120], the IC50 was less than 0.1 µM.
Still for that read-out and setting: with `CCCCCCc1nc(C)c(CNC(=O)c2cc(NC(=O)c3cc(F)c(F)cc3Cl)[nH]n2)o1` [Example 1-163] the figure was less than 0.1 µM; with `CN(C)c1ccccc1CNC(=O)c1cc(NC(=O)c2cc(F)c(F)cc2Cl)[nH]n1` [Example 1-10], 0.1 to 0.3 µM; with `COC(=O)COc1ccccc1CNC(=O)c1cc(NC(=O)c2cc(F)c(F)cc2Cl)[nH]n1` [Example 3-47], less than 0.1 µM.

The experiment is the same for the next values; noted with them: figure in brackets (100); read-out: IC50: % value given with (100).
In the case of `O=C(NC1CCc2ccccc21)c1cc(NC(=O)c2cc(F)c(F)cc2Cl)[nH]n1` (stereo not shown) [Example 6-41], the inhibition at 0.1 µM turned out to be 12.3%.
`CCOC1(C)Nc2ccccc2CN1C(=O)c1cc(NC(=O)c2cc(F)c(F)cc2Cl)[nH]n1` (stereo not shown) [Example 6-47]: the inhibition at 0.1 µM is 41.1%.

The experiment is the same for the next values; noted with them: human liver glycogen phosphorylase; class symbol.
Take `N=C(Nc1cccc(CNC(=O)c2cc(NC(=O)c3cc(F)c(F)cc3Cl)[nH]n2)c1)c1ccccc1F` [Example 6-34]: the IC50 is less than 0.1 µM.
The same measure, in the same setting: with `O=C(NCc1ccnc(-c2noc(=O)[nH]2)c1)c1cc(NC(=O)c2cc(F)c(F)cc2Cl)[nH]n1` [Example 6-50] the figure was less than 0.1 µM; with `CS(=O)(=O)Nc1ccccc1CNC(=O)c1cc(NC(=O)c2cc(F)c(F)cc2Cl)[nH]n1` [Example 6-19], less than 0.1 µM; with `CCN(C=Nc1ccccc1CNC(=O)c1cc(NC(=O)c2cc(F)c(F)cc2Cl)[nH]n1)CC` [Example 6-27], less than 0.1 µM.
In the case of `CC(=N)Nc1ccccc1CNC(=O)c1cc(NC(=O)c2cc(F)c(F)cc2Cl)[nH]n1` [Example 6-30], the IC50 is less than 0.1 µM.
On the same count and under the same terms, the value for `CN(C(=O)c1cc(NC(=O)c2cc(F)c(F)cc2Cl)[nH]n1)c1ccc(-c2noc(=S)[nH]2)cc1` [Example 6-15] was less than 0.1 µM.

Source of the values: patent publication US20070032529A1, “Pyrazole compounds and their use as antidiabetes agents” (Japan Tobacco Inc., priority 2005, published 2007).
